Source: patent US7498336B2, “Deazaflavin compounds and methods of use thereof” (The United States of America as represented by the …, priority 2003, dated 2009)
Square brackets hold non-standard residues; d marks the D form. Peptide text beside a SMILES is read from it. Nle = CCCC[C@H](N)C(=O)O

Tests used:
[1] = biological target: T1, rabbit E1 (Oryctolagus cuniculus, UniProt Q29504); experiment: E1 only assay (thiol-ester linkage of ubiquitin with E1); type: biochemical; details: FIG. 2D
T1 construct: purchased Calbiochem 6620700
T1 sequence (Q29504 1-1058): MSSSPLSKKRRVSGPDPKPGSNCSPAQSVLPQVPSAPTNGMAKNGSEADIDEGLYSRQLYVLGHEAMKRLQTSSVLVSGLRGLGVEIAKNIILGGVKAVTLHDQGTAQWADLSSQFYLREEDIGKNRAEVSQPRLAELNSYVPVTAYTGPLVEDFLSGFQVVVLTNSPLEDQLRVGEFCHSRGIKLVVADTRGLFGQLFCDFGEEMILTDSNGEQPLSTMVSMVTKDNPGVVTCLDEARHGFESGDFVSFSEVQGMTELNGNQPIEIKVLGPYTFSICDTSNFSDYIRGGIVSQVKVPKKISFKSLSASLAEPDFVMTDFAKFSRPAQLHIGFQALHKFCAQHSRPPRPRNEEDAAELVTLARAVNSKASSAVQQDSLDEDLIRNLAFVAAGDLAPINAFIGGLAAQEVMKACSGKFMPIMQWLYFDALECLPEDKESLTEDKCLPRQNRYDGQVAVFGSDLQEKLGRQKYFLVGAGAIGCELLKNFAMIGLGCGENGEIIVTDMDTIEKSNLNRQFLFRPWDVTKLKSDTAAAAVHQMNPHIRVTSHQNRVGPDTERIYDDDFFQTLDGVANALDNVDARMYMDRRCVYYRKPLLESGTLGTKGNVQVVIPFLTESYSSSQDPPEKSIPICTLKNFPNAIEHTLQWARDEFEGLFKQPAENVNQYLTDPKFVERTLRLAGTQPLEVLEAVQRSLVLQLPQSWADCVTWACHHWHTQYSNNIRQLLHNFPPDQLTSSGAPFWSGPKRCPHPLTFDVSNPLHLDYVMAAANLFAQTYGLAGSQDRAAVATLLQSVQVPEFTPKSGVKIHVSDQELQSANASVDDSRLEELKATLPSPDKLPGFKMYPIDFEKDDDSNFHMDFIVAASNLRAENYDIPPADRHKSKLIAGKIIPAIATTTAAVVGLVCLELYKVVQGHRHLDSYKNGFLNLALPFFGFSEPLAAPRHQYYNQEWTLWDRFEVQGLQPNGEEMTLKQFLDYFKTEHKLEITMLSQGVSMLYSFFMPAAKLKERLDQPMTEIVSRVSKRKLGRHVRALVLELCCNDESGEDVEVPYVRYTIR
Description: 2 μl rabbit E1 +12 μl of 1× reaction buffer are mixed together with the test compound followed by addition of 1 μl of ^32P Ub is added for 10 minutes at room temperature followed by resolution by SDS-PAGE under non-reducing conditions to maintain thiol-ester linkages and exposure as above.

[2] = biological target: T2, Nedd4 (Homo sapiens, UniProt P46934); experiment: In vitro ubiquitination assay (E1+E2+E3) with unrelated E3 ligase; type: biochemical; details: gel assay, FIG. 2B, 2C
T2 construct: made in house
T2 sequence (P46934 1-1319): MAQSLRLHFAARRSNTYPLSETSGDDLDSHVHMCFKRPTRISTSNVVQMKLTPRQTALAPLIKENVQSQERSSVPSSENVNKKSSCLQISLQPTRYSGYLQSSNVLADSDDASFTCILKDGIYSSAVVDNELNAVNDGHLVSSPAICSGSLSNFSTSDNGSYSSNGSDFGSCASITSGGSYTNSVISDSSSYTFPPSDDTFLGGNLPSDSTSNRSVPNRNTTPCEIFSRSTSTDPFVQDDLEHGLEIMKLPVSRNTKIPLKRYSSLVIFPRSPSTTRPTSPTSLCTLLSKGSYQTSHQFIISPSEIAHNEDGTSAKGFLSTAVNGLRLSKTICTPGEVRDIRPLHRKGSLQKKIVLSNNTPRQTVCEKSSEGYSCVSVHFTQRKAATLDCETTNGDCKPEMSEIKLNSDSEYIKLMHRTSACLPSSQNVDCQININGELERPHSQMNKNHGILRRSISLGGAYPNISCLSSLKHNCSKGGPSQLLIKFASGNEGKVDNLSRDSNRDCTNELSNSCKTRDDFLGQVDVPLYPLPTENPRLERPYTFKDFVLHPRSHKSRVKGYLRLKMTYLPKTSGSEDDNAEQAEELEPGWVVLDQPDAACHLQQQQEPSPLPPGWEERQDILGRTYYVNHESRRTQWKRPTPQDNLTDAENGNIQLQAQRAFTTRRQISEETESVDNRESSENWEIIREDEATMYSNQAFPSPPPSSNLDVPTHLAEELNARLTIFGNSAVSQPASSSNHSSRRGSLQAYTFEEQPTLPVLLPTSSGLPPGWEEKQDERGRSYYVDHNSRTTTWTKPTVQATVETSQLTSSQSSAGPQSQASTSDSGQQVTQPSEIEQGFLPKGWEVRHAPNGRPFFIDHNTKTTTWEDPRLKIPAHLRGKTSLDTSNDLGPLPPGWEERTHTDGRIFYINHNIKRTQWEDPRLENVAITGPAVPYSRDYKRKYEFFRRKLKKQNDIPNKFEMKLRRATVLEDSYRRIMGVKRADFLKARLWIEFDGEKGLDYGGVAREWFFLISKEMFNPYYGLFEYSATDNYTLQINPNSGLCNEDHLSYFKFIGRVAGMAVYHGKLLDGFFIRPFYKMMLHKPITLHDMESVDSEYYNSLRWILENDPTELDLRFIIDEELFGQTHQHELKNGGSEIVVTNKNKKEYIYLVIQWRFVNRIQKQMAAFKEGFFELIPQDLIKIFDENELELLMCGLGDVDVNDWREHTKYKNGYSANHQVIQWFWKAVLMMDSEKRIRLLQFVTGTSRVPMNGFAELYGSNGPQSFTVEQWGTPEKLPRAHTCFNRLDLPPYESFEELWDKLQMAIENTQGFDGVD
Description: (§1) 1 pmole per experimental point of bacterially expressed GST-MDM2 (or GST-Nedd) was coupled to glutathione Sepharose (GS) for 30 minutes at room temperature with tumbling, followed by 3× wash with 50 mM Tris pH 7.5. Following this, 20 μl of 1× buffer was added (40 μl 10× reaction buffer*, 40 μl 10× PCK**, 320 μl dH2O). The test compound in DMSO is then added to the desired concentration with an equal volume of DMSO used as a control. Samples are incubated with shaking for 1 hr at 23° C. To carry out the reaction, a pre-made cocktail of Rabbit E1 (Calbiochem #6620700)/UbcH5B/^32P Ub cocktail (1 μl/0.5 μl/1 μl) is added followed by 15 minutes shaking at 30° C. The reaction is terminated by addition of 8 μl 4× reducing SDS-PAGE loading buffer. After dissociating proteins from the beads at 100° C. for 2 minutes, samples are resolved on 6% PAGE followed by exposure of the dried gel to phosphor screen. Note: ^32P Ub is derived from GST-Ub that has been engineered to include a PKA phosphorylation site. This fusion protein is purified on glutathione Sepharose, phosphorylated, following this, the ^32P Ub ubiquitin is cleaved and purified away from the thrombin.

[3] = test system: Normal human fibroblast MRC-5; experiment: Cell based assay for accumulation of MDM2 and p53 (immunoblot); details: MRC-5 cells; for MDM2 level / p53 level: 50 μM, 8 hours
Description: Methods: Normal human fibroblast MRC-5 were chosen to determine whether the compounds from the high throughput screening can inhibit the E3 activity of Mdm2, i.e. stabilizing MDM2 and p53 in vivo. After being seeded in 12-well tissue culture cluster overnight, the cells were treated with 50 μM of the compounds for 8 hours. They were harvested with trypsin-EDTA, washed with PBS, and lysed with RIPA buffer. Following removal of insoluble pellet by centrifugation for 20 minutes at 10000 rpm, the lysate was separated on 4-20% gradient SDS-polyacrylamide gel and transferred onto nitrocellulose membrane. The membrane was then blotted with anti-p53 antibody (DO-1), anti-MDM2 antibodies (Ab-1 and Ab-2), anti-p27 (Santa Cruz), anti-Nedd4, and anti-p21Waf1 antibody. After extensive washing with PBS containing 0.5% Triton X-100, it was incubated with HRP-labeled donkey anti-mouse antibody and visualized using enhanced chemiluminescence.

[4] = biological target: T3, p53 pre-bound to GST-MDM2 (Homo sapiens, UniProt Q00987); experiment: In vitro p53 ubiquitination assay; type: biochemical; details: cellular p53 pre-bound to GST-MDM2, FIG. 2G
T3 construct: made in house; host or cells: GST-MDM2: bacteria; p53: SaOS-p53 inducible cells
T3 sequence (Q00987 whole entry): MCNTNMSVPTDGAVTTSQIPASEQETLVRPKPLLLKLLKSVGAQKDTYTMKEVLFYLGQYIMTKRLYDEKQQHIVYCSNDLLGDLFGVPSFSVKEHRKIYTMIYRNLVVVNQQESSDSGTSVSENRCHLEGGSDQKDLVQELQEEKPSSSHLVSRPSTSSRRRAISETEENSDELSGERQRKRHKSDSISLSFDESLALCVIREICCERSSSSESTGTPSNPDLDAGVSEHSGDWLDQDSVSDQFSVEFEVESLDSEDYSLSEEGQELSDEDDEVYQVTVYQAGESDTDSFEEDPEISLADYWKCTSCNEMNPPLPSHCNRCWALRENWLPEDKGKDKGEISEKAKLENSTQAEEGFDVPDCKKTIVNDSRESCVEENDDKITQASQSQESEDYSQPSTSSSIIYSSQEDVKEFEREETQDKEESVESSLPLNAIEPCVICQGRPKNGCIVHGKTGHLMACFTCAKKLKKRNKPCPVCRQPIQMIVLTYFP
T3 sequence (P04637 whole entry partner): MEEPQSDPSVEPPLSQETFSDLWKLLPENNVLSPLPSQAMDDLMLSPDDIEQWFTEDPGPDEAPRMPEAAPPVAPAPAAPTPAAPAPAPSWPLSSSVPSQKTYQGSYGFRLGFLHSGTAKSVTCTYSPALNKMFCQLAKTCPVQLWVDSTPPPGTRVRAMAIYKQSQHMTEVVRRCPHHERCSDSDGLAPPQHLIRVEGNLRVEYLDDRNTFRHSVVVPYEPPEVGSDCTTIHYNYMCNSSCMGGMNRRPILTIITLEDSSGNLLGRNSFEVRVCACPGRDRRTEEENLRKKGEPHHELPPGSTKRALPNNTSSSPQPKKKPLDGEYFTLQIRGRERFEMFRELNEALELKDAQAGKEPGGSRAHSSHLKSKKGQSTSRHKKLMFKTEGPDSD
Description: d. In Vitro R53 Ubiguitination Assay
p53 protein from SaOS-p53 inducible cell lysate was purified from cells using GST-MDM2 (5 pmol) pre-bound to GS beads. Samples were then incubated with test compounds as above. Subsequently 2 μl rabbit E1, 1 μl UbcH5b, and 10 μg of ubiquitin were added. After reaction for 15 min at 23° C., samples were subject to SDS-PAGE under reducing conditions, transferred to nitrocellulose membranes and immunoblotted with anti-p53 (DO-1) followed by ECL using standard techniques.

[5] = biological target: T4, GST-MDM2 (Homo sapiens, UniProt Q00987); experiment: Standard MDM2 in vitro ubiquitination assay (E1+E2+E3), SDS-PAGE gel; type: biochemical; details: FIG. 2A, 2F
T4 construct: made in house
T4 sequence (Q00987 whole entry): as the sequence (Q00987 whole entry) above
Description: a. “Standard MDM2 in vitro Ubiguitination Assay” (E1+E2+E3 Assay)
as §1, with “To carry out the reaction, a pre-made cocktail of Rabbit E1 (Calbiochem #6620700)/UbcH5B/^32P Ub cocktail (1 μl/0.5 μl/1 μl) is added followed by 15 minutes shaking at 30° C.” left out
• 500 mM Tris (pH 7.5) • 2 mM ATP • 5 mM MgCl2 • 1 mM DTT • 10 mM creatine phosphate (Sigma P4635) (45 mg/10 ml). **10× PCK • Sigma C7886, 1000 U, reconstitute in 200 μl 10 mM Tris pH 8.0.

[6] = test system: E1A-transformed RPE cells; experiment: Apoptosis in E1A-transformed RPE cells; type: cell-based, human; details: FIG. 4 left
From the text: Cell-based assays include model systems where primary human epithelial cells (“normal cells”) are compared to the same cells expressing the adenovirus E1A oncogene (“transformed cells”). Activation of p53 was not toxic to normal cells, but activation of p53 in transformed cells induces p53-mediated apoptosis. High concentrations of wild type (wt) p53 protein can induce apoptosis in a variety of different tumor cells. Potential inhibitors of MDM2 would regulate the stability and function of p53 and MDM2. Preferably the assays measure number of cells undergoing apoptosis due to MDM2 induced p53 degradation in tumor cells in the presence or absence of candidate compounds as compared to normal cells in the presence or absence of candidate compounds. An increase in the number of these cells undergoing apoptosis in the presence of candidate compounds in tumor cells, as compared to normal untreated cells is indicative of a potential anti-tumor compound. […]
Apoptosis and cell death were determined by FACS analysis of sub-G1 nuclei or counting trypan blue-positive cells under microscope. Caspase activity was measured using fluorogenic substrate Ac-DEVD-AFC and CytoFluor multi-well plate reader (PerSeptive Biosystems). […]

Row | inhibition of thiol-ester linkage of ubiquitin with E1 [1] | selectivity of inhibition of MDM2 versus unrelated E3 ligase Nedd4 [2] | inhibition of MDM2 E3 ligase (auto-ubiquitination) [5] | SMILES | MDM2 level [3] | p53 level [3] | inhibition of p53 ubiquitination by MDM2 [4] | p21 level ([3]; FIG. 3C) | apoptosis [6]
1 | block the activity of the E1 enzyme | inhibits all E3s | – | O=c1nc2n(-c3ccc(Cl)cc3)c3ccc([N+](=O)[O-])cc3cc-2c(=O)[nH]1 [Compound 97H10, 10-(4-chloro-phenyl)-7-nitro-10H-pyrimido[4,5-b]quinoline-2,4-dione] | – | – | – | – | –
2 | – | – | inhibition of MDM2 auto-ubiquitination | O=c1nc2n(-c3ccc(Cl)cc3)c3ccc([N+](=O)[O-])cc3cc-2c(=O)[nH]1 [Compound 98D07, 10-(-4-chloro-phenyl)-7-nitro-10H-pyrimido[4,5-b]quinoline-2,4-dione] | specifically increase MDM2 and p53 | specifically increase MDM2 and p53 | significant dose-dependent inhibition of p53 ubiquitination | – | –
3 | – | – | inhibition of MDM2 auto-ubiquitination | Cc1ccc(-n2c3nc(=O)[nH]c(=O)c-3cc3cc([N+](=O)[O-])ccc32)cc1 [Compound 98E07, 10-(-4-methyl-phenyl)-7-nitro-10H-pyrimido[4,5-b]quinoline-2,4-dione] | specifically increase MDM2 and p53 | specifically increase MDM2 and p53 | – | – | –
4 | – | – | – | CCCC[C@@H](C=O)NC(=O)[C@H](CC(C)C)NC(=O)[C@H](CC(C)C)NC(C)=O [LLNL, reference compound] (Ac-Leu-Leu-[Nle]-aldehyde) | accumulated MDM2, p53, and p21 | accumulated MDM2, p53, and p21 | – | accumulated MDM2, p53, and p21 | markedly increased apoptosis
